ChEMBL document CHEMBL1201862, “PubChem BioAssay data set” (2004)
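Cells were grown in 96-well plates and exposed to each compound for 48 hours at five concentrations; endpoints were interpolated linearly between bracketing concentrations, or set to the highest concentration if not reached. At the GI50, growth is halved.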 Active and inactive are the calls of the source. Rule as the data show it: active = GI50 up to about 1.1 µM and inactive = higher.

What was measured:
Assay in all cases: NCI-60 cell line screen, 48 h
[1] = system: 786-0
[2] = system: DU-145
[3] = system: HCT-116
[4] = system: HCT-15
[5] = system: HT-29
[6] = system: KM12
[7] = system: MDA-MB-231
[8] = system: MDA-MB-435
[9] = system: NCI-H522
[10] = system: OVCAR-3
[11] = system: RXF 393
[12] = system: SF-268
[13] = system: SF-295
[14] = system: SK-MEL-2
[15] = system: SK-MEL-5
[16] = system: SNB-19
[17] = system: TK-10
[18] = system: EKVX
[19] = system: SR

Row | Compound | GI50 [1] | GI50 [2] | GI50 [3] | GI50 [4] [µM] | GI50 [5] | GI50 [6] | GI50 [7] | GI50 [8] | GI50 [9] | GI50 [10] | GI50 [11] | GI50 [12] | GI50 [13] | GI50 [14] | GI50 [15] | GI50 [16] | GI50 [17] | GI50 [18] | GI50 [19]
1 | CC1(C)C2CCC(=O)C1CC2 (stereo not given) | > 100 µM (inactive) | > 100 µM (inactive) | > 100 µM (inactive) | > 100 | > 100 µM (inactive) | > 100 µM (inactive) | > 100 µM (inactive) | > 100 µM (inactive) | > 100 µM (inactive) | > 100 µM (inactive) | > 100 µM (inactive) | > 100 µM (inactive) | > 100 µM (inactive) | > 100 µM (inactive) | > 100 µM (inactive) | > 100 µM (inactive) | > 100 µM (inactive) | – | –
2 | Cc1ccc(N2C=Nn3c(nc4sc5c(c4c3=O)CCCC5)C2)cc1 | 35.7 µM (inactive) | 69.3 µM (inactive) | 41.2 µM (inactive) | 48.2 | 47.1 µM (inactive) | 62.4 µM (inactive) | 43.6 µM (inactive) | 99.3 µM (inactive) | 39.1 µM (inactive) | 49.4 µM (inactive) | 24.8 µM (inactive) | 83 µM (inactive) | 44.8 µM (inactive) | > 100 µM (inactive) | 29.8 µM (inactive) | 78.2 µM (inactive) | 86.1 µM (inactive) | 80 µM (inactive) | –
3 | CCN(CC)c1ccc2cc3ccc(N(CC)CC)cc3[o+]c2c1 | 2.97 µM (inactive) | – | 0.29 µM (active) | 2.07 | 0.474 µM (active) | 0.51 µM (active) | – | – | 1.69 µM (inactive) | 0.8 µM (active) | 2.36 µM (inactive) | 1.29 µM (inactive) | 4.48 µM (inactive) | 1.34 µM (inactive) | 2.34 µM (inactive) | 7.8 µM (inactive) | 6.08 µM (inactive) | 5.5 µM (inactive) | 0.267 µM (active)
4 | CN(CCNC(=O)c1cn(C)c2c1ccc1ccccc12)CCNC(=O)c1cn(C)c2c1ccc1ccccc12 | 2.04 µM (inactive) | 2.1 µM (inactive) | 1.99 µM (inactive) | 1.26 | 6.05 µM (inactive) | 1.79 µM (inactive) | 1.47 µM (inactive) | 2.2 µM (inactive) | – | 2.26 µM (inactive) | – | 2.69 µM (inactive) | 3.05 µM (inactive) | 2.2 µM (inactive) | 2.6 µM (inactive) | 3.57 µM (inactive) | 1.92 µM (inactive) | 2.37 µM (inactive) | –
5 | COc1ccc(/C=C(/c2ccc(OC)cc2)c2c(Cl)cc(Cl)c(/C(=C\c3ccc(OC)cc3)c3ccc(OC)cc3)c2/N=N/c2ccccc2)cc1 | > 100 µM (inactive) | > 100 µM (inactive) | > 100 µM (inactive) | > 100 | > 100 µM (inactive) | > 100 µM (inactive) | > 100 µM (inactive) | > 100 µM (inactive) | > 100 µM (inactive) | > 100 µM (inactive) | > 100 µM (inactive) | > 100 µM (inactive) | > 100 µM (inactive) | > 100 µM (inactive) | > 100 µM (inactive) | > 100 µM (inactive) | > 100 µM (inactive) | > 100 µM (inactive) | –
6 | CSc1csc(-c2ccc(-c3ccc(-c4cc(SC)cs4)s3)s2)c1 | > 100 µM (inactive) | – | > 100 µM (inactive) | > 100 | > 100 µM (inactive) | > 100 µM (inactive) | > 100 µM (inactive) | > 100 µM (inactive) | – | > 100 µM (inactive) | – | > 100 µM (inactive) | > 100 µM (inactive) | > 100 µM (inactive) | > 100 µM (inactive) | > 100 µM (inactive) | > 100 µM (inactive) | > 100 µM (inactive) | > 100 µM (inactive)
7 | COc1cccc(Cc2c3cc(OC)ccc3cc[n+]2C)c1 | > 100 µM (inactive) | – | – | > 100 | 30.3 µM (inactive) | 40.5 µM (inactive) | – | – | 22.9 µM (inactive) | 47.5 µM (inactive) | – | 36.2 µM (inactive) | > 100 µM (inactive) | 72.6 µM (inactive) | 22.4 µM (inactive) | 43.1 µM (inactive) | > 100 µM (inactive) | > 100 µM (inactive) | –
8 | COc1ccc(-c2c(/C=N/OCC(=O)O)c3sc4ccccc4n3c2/C=N/OCC(=O)O)cc1 | > 50 µM (inactive) | > 50 µM (inactive) | > 50 µM (inactive) | > 50 | > 50 µM (inactive) | > 50 µM (inactive) | > 50 µM (inactive) | > 50 µM (inactive) | > 50 µM (inactive) | > 50 µM (inactive) | > 50 µM (inactive) | > 50 µM (inactive) | > 50 µM (inactive) | > 50 µM (inactive) | > 50 µM (inactive) | > 50 µM (inactive) | > 50 µM (inactive) | > 50 µM (inactive) | –
9 | CCOC(=O)[C@H]1C[C@]23CN(C(=O)OC(C)(C)C)CC[C@H]2CCC2(SCCCS2)[C@@H]3N1C | 34.5 µM (inactive) | 54.3 µM (inactive) | 31.8 µM (inactive) | 38.1 | 22.5 µM (inactive) | 33.3 µM (inactive) | – | 37.7 µM (inactive) | 27.5 µM (inactive) | 48.2 µM (inactive) | 33.8 µM (inactive) | 50.4 µM (inactive) | 38.3 µM (inactive) | 22.2 µM (inactive) | 18.5 µM (inactive) | 76 µM (inactive) | 36.6 µM (inactive) | 27.3 µM (inactive) | 24 µM (inactive)
10 | O=c1cc(-c2ccccc2)oc2ccc(Oc3nnnn3-c3ccccc3)cc12 | 25.9 µM (inactive) | > 100 µM (inactive) | > 81.1 µM (inactive) | > 100 | > 100 µM (inactive) | > 100 µM (inactive) | – | 11.9 µM (inactive) | 70.5 µM (inactive) | > 100 µM (inactive) | > 51.5 µM (inactive) | 11.8 µM (inactive) | 29.2 µM (inactive) | 39.2 µM (inactive) | > 100 µM (inactive) | 33.2 µM (inactive) | > 100 µM (inactive) | 12.1 µM (inactive) | > 33.1 µM (inactive)
11 | CCOP(=O)(/C=C\n1cc(C)c(=O)[nH]c1=O)OCC | > 100 µM (inactive) | > 100 µM (inactive) | > 100 µM (inactive) | > 100 | > 100 µM (inactive) | > 100 µM (inactive) | > 100 µM (inactive) | > 100 µM (inactive) | 12.1 µM (inactive) | > 100 µM (inactive) | > 100 µM (inactive) | > 100 µM (inactive) | > 100 µM (inactive) | > 100 µM (inactive) | > 100 µM (inactive) | > 100 µM (inactive) | > 100 µM (inactive) | > 100 µM (inactive) | –
12 | CCCCCCCCCCCCCCCCCCOP1(=O)OCCO1 | > 100 µM (inactive) | > 100 µM (inactive) | 49.5 µM (inactive) | 39.9 | > 100 µM (inactive) | > 100 µM (inactive) | 44.5 µM (inactive) | > 100 µM (inactive) | 54.6 µM (inactive) | > 100 µM (inactive) | 16.4 µM (inactive) | – | 28.5 µM (inactive) | > 100 µM (inactive) | > 100 µM (inactive) | 44.8 µM (inactive) | 30.4 µM (inactive) | > 100 µM (inactive) | –
13 | C=C1c2ccccc2Oc2nc3nc(N)c(C#N)c(N)c3c(N)c21 | 27 µM (inactive) | 43.7 µM (inactive) | 22.9 µM (inactive) | 16.9 | 23.1 µM (inactive) | 18.6 µM (inactive) | 47.6 µM (inactive) | 30.5 µM (inactive) | – | 16.6 µM (inactive) | 58.1 µM (inactive) | 21.6 µM (inactive) | 30.3 µM (inactive) | 17.8 µM (inactive) | 17.6 µM (inactive) | 40.7 µM (inactive) | 39.1 µM (inactive) | 11.9 µM (inactive) | –
14 | CC12CC(c3ccccc3O1)C(C(=O)Nc1cccc(F)c1)C(=O)N2 (stereo not given) | > 100 µM (inactive) | > 100 µM (inactive) | 91.2 µM (inactive) | 42.9 | 55.8 µM (inactive) | 49.7 µM (inactive) | – | 38.8 µM (inactive) | > 100 µM (inactive) | 92 µM (inactive) | – | > 100 µM (inactive) | 64 µM (inactive) | > 100 µM (inactive) | 22.8 µM (inactive) | > 100 µM (inactive) | – | 31.6 µM (inactive) | 38.7 µM (inactive)
15 | Cc1c(C(=O)CC(=O)C(=O)Nc2ccccc2C(F)(F)F)[n+]([O-])c2ccccc2[n+]1[O-] | 33.6 µM (inactive) | – | 14.7 µM (inactive) | 16.8 | 18.5 µM (inactive) | 19.5 µM (inactive) | – | – | 16.4 µM (inactive) | 2.63 µM (inactive) | 19.2 µM (inactive) | 21.2 µM (inactive) | 31.6 µM (inactive) | 19.8 µM (inactive) | 16.3 µM (inactive) | 32.1 µM (inactive) | 46.8 µM (inactive) | 19.5 µM (inactive) | 2.09 µM (inactive)
16 | O=c1nc(NC(c2ccccc2)(c2ccccc2)c2ccccc2)ccn1CCO | > 100 µM (inactive) | – | 61.1 µM (inactive) | 63.5 | 60 µM (inactive) | 60.3 µM (inactive) | – | – | 51.5 µM (inactive) | 40.2 µM (inactive) | 6.52 µM (inactive) | 66.4 µM (inactive) | 61.1 µM (inactive) | > 100 µM (inactive) | – | > 100 µM (inactive) | > 100 µM (inactive) | 81.8 µM (inactive) | 36.3 µM (inactive)
17 | Clc1n[nH]c2ccccc12 | > 100 µM (inactive) | > 100 µM (inactive) | > 100 µM (inactive) | > 100 | > 100 µM (inactive) | > 100 µM (inactive) | > 100 µM (inactive) | > 100 µM (inactive) | > 100 µM (inactive) | > 100 µM (inactive) | > 100 µM (inactive) | > 100 µM (inactive) | > 100 µM (inactive) | > 100 µM (inactive) | > 100 µM (inactive) | > 100 µM (inactive) | > 100 µM (inactive) | 86.5 µM (inactive) | –
